According to patent publication US8394952B2 (Vertex Pharmaceuticals Incorporated, priority 2006, dated 2013):

What follows are molecules tested against Plk1 (Homo sapiens, UniProt P53350) (assay: biochemical).
Chain of Plk1 (P53350 20-338): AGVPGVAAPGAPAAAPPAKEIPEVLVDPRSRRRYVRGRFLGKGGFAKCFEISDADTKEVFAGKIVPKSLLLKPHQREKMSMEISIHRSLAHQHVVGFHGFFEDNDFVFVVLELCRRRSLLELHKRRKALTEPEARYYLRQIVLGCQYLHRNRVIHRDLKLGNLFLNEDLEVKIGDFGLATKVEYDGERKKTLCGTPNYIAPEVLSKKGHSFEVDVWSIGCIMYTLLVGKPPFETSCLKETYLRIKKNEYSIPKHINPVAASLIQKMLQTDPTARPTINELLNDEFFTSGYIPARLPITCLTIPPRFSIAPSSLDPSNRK
Work on `CN1C(=O)C(C)(C)CN(C2CCCC2)c2nc(Nc3ccc(-n4cncn4)cc3)ncc21` [Compound I-49, 2-(4-(1H-1,2,4-triazol-1-yl)phenylamino)-9-cyclopentyl-8,9-dihydro-5,7,7-trimethyl-5H-pyrimido[4,5-b][1,4]diazepin-6(7H)-one] yielded a Ki of 10 to 100 nM. In the case of `COc1cc(C(=O)NC[C@@H]2CCCC[C@H]2O)ccc1Nc1ncc2c(n1)N(C1CCCC1)CC(C)(C)C(=O)N2C` [Compound I-229, 4-(9-cyclopentyl-5,7,7-trimethyl-6-oxo-6,7,8,9-tetrahydro-5H-pyrimido[4,5-b][1,4]diazepin-2-ylamino)-N-(((1S,2R)-2-hydroxycyclohexyl)methyl)-3-methoxybenzamide], the Ki is reported as < 10 nM. With `CCC1CN(C2CCCC2)c2nc(Nc3ccc(C(=O)NC)cc3OC)ncc2N(C)C1=O` (stereo not drawn) [Compound I-190, 4-(9-cyclopentyl-7-ethyl-5-methyl-6-oxo-6,7,8,9-tetrahydro-5H-pyrimido[4,5-b][1,4]diazepin-2-ylamino)-3-methoxy-N-methylbenzamide] the Ki was < 10 nM. `COc1cc(C(=O)NCc2ccc(S(C)(=O)=O)cc2)ccc1Nc1ncc2c(n1)N(C1CCCC1)CC(C)(C)C(=O)N2C` [Compound I-214, 4-(9-cyclopentyl-5,7,7-trimethyl-6-oxo-6,7,8,9-tetrahydro-5H-pyrimido[4,5-b][1,4]diazepin-2-ylamino)-3-methoxy-N-(4-(methylsulfonyl)benzyl)benzamide] was tested, and the Ki was < 10 nM. In the case of `COc1cc(C(=O)NCCCN2CCN(C)CC2)ccc1Nc1ncc2c(n1)N(C1CCCC1)CC(C)(C)C(=O)N2C` [Compound I-28, 4-(9-cyclopentyl-6,7,8,9-tetrahydro-5,7,7-trimethyl-6-oxo-5H-pyrimido[4,5-b][1,4]diazepin-2-ylamino)-3-methoxy-N-(3-(4-methylpiperazin-1-yl)propyl)benzamide], the Ki is reported as < 10 nM. For `COc1cc(C(=O)NCC(C)(C)CO)ccc1Nc1ncc2c(n1)N(C1CCCC1)CC(C)(C)C(=O)N2C` [Compound I-211, 4-(9-cyclopentyl-5,7,7-trimethyl-6-oxo-6,7,8,9-tetrahydro-5H-pyrimido[4,5-b][1,4]diazepin-2-ylamino)-N-(3-hydroxy-2,2-dimethylpropyl)-3-methoxybenzamide], the Ki was < 10 nM. In the case of `CNC(=O)c1ccc(Nc2ncc3c(n2)N(C2CCCC2)CC(C)(C)C(=O)N3C)cc1` [Compound I-80, 4-(9-cyclopentyl-6,7,8,9-tetrahydro-5,7,7-trimethyl-6-oxo-5H-pyrimido[4,5-b][1,4]diazepin-2-ylamino)-N-methylbenzamide], the Ki is reported as < 10 nM. For `CN1C(=O)C(C)(C)CN(C2CCCC2)c2nc(Nc3cccc4cn(C)nc34)ncc21` [Compound I-91, 2-(2-methyl-2H-indazol-7-ylamino)-9-cyclopentyl-8,9-dihydro-5,7,7-trimethyl-5H-pyrimido[4,5-b][1,4]diazepin-6(7H)-one], the Ki was 10 to 100 nM. With `CN1C(=O)C(C)(C)CN(C2CCCC2)c2nc(Nc3ccc(C(=O)NCCO)cc3)ncc21` [Compound I-87, 4-(9-cyclopentyl-6,7,8,9-tetrahydro-5,7,7-trimethyl-6-oxo-5H-pyrimido[4,5-b][1,4]diazepin-2-ylamino)-N-(2-hydroxyethyl)benzamide] the Ki was < 10 nM. With `CNC(=O)c1ccc(Nc2ncc3c(n2)N([C@@H]2CCNC2)CC(C)(C)C(=O)N3C)c(OC)c1` [Compound I-19, 4-(6,7,8,9-tetrahydro-5,7,7-trimethyl-6-oxo-9-((R)-pyrrolidin-3-yl)-5H-pyrimido[4,5-b][1,4]diazepin-2-ylamino)-3-methoxy-N-methylbenzamide] the Ki was 10 to 100 nM. With `COc1cc(C(=O)NC2CCN(C(C)(C)C)CC2)ccc1Nc1ncc2c(n1)N(C1CCCC1)CC(C)(C)C(=O)N2C` [Compound I-71, 4-(9-cyclopentyl-6,7,8,9-tetrahydro-5,7,7-trimethyl-6-oxo-5H-pyrimido[4,5-b][1,4]diazepin-2-ylamino)-N-(1-tert-butylpiperidin-4-yl)-3-methoxybenzamide] the Ki was < 10 nM. For `COc1cc(C(=O)NCC#N)ccc1Nc1ncc2c(n1)N(C1CCCC1)CC(C)(C)C(=O)N2C` [Compound I-233, N-(cyanomethyl)-4-(9-cyclopentyl-5,7,7-trimethyl-6-oxo-6,7,8,9-tetrahydro-5H-pyrimido[4,5-b][1,4]diazepin-2-ylamino)-3-methoxybenzamide], the Ki was < 10 nM. With `CC(=O)Nc1cccc(Nc2ncc3c(n2)N(C2CCCC2)CC(C)(C)C(=O)N3C)c1` [Compound I-111, N-(3-(9-cyclopentyl-6,7,8,9-tetrahydro-5,7,7-trimethyl-6-oxo-5H-pyrimido[4,5-b][1,4]diazepin-2-ylamino)phenyl)acetamide] the Ki was 10 to 100 nM. `COc1cc(C(=O)O)ccc1Nc1ncc2c(n1)N(C1CCCC1)CC(C)(C)C(=O)N2C` [Compound I-120, 4-(9-cyclopentyl-6,7,8,9-tetrahydro-5,7,7-trimethyl-6-oxo-5H-pyrimido[4,5-b][1,4]diazepin-2-ylamino)-3-methoxybenzoic acid] showed a Ki of 10 to 100 nM. For `COc1cc(C(=O)NCC(O)C(F)(F)F)ccc1Nc1ncc2c(n1)N(C1CCCC1)CC(C)(C)C(=O)N2C` (stereo not drawn) [Compound I-278, 4-(9-cyclopentyl-5,7,7-trimethyl-6-oxo-6,7,8,9-tetrahydro-5H-pyrimido[4,5-b][1,4]diazepin-2-ylamino)-3-methoxy-N-(3,3,3-trifluoro-2-hydroxypropyl)benzamide], the Ki was < 10 nM. In the case of `CN1CCC(C(=O)Nc2cccc(Nc3ncc4c(n3)N(C3CCCC3)CC(C)(C)C(=O)N4C)c2)CC1` [Compound I-157, N-(3-(9-cyclopentyl-6,7,8,9-tetrahydro-5,7,7-trimethyl-6-oxo-5H-pyrimido[4,5-b][1,4]diazepin-2-ylamino)phenyl)-1-methylpiperidine-4-carboxamide], the Ki is reported as < 10 nM. With `COc1cc(C(=O)N[C@@H]2CC[C@@H](O)C2)ccc1Nc1ncc2c(n1)N(C1CCCC1)CC(C)(C)C(=O)N2C` [Compound I-258] the Ki was < 10 nM. `CN1C(=O)C(C)(C)CN(C2CCCC2)c2nc(Nc3cccc4[nH]ncc34)ncc21` [Compound I-81, 2-(1H-indazol-4-ylamino)-9-cyclopentyl-8,9-dihydro-5,7,7-trimethyl-5H-pyrimido[4,5-b][1,4]diazepin-6(7H)-one] showed a Ki of 10 to 100 nM. `COc1cc(C(=O)N[C@H]2CC[C@@H](F)CC2)ccc1Nc1ncc2c(n1)N(C1CCCC1)CC(C)(C)C(=O)N2C` [Compound I-267, 4-(9-cyclopentyl-5,7,7-trimethyl-6-oxo-6,7,8,9-tetrahydro-5H-pyrimido[4,5-b][1,4]diazepin-2-ylamino)-N-((1S,4S)-4-fluorocylohexyl)-3-methoxybenzamide] was tested, and the Ki was < 10 nM. In the case of `COc1cc(C(=O)NCC2CCCCC2)ccc1Nc1ncc2c(n1)N(C1CCCC1)CC(C)(C)C(=O)N2C` [Compound I-196, N-(cyclohexylmethyl)-4-(9-cyclopentyl-5,7,7-trimethyl-6-oxo-6,7,8,9-tetrahydro-5H-pyrimido[4,5-b][1,4]diazepin-2-ylamino)-3-methoxybenzamide], the Ki is reported as < 10 nM. With `COc1cc(C(=O)NCCC(F)(F)F)ccc1Nc1ncc2c(n1)N(C1CCCC1)CC(C)(C)C(=O)N2C` [Compound I-132, 4-(9-cyclopentyl-6,7,8,9-tetrahydro-5,7,7-trimethyl-6-oxo-5H-pyrimido[4,5-b][1,4]diazepin-2-ylamino)-N-(3,3,3-trifluoropropyl)-3-methoxybenzamide] the Ki was < 10 nM. In the case of `COc1cc(C(=O)NC2CC(F)(F)C2)ccc1Nc1ncc2c(n1)N(C1CCCC1)CC(C)(C)C(=O)N2C` [Compound I-166, 4-(9-cyclopentyl-6,7,8,9-tetrahydro-5,7,7-trimethyl-6-oxo-5H-pyrimido[4,5-b][1,4]diazepin-2-ylamino)-N-(3,3-difluorocyclobutyl)-3-methoxybenzamide], the Ki is reported as < 10 nM. In the case of `CN1C(=O)C(C)(C)CN(C2CCCC2)c2nc(Nc3cccc4cn[nH]c34)ncc21` [Compound I-89, 2-(1H-indazo-7-ylamino)-9-cyclopentyl-8,9-dihydro-5,7,7-trimethyl-5H-pyrimido[4,5-b][1,4]diazepin-6(7H)-one], the Ki is reported as 10 to 100 nM. For `COCCCNC(=O)c1ccc(Nc2ncc3c(n2)N(C2CCCC2)CC(C)(C)C(=O)N3C)c(OC)c1` [Compound I-198, 4-(9-cyclopentyl-5,7,7-trimethyl-6-oxo-6,7,8,9-tetrahydro-5H-pyrimido[4,5-b][1,4]diazepin-2-ylamino)-3-methoxy-N-(3-methoxypropyl)benzamide], the Ki was < 10 nM. With `CC(=O)Nc1ccc(C)c(Nc2ncc3c(n2)N(C2CCCC2)CC(C)(C)C(=O)N3C)c1` [Compound I-163, N-(3-(9-cyclopentyl-6,7,8,9-tetrahydro-5,7,7-trimethyl-6-oxo-5H-pyrimido[4,5-b][1,4]diazepin-2-ylamino)-4-methylphenyl)acetamide] the Ki was < 10 nM. In the case of `CN1C(=O)C(C)(C)CN(C2CCCC2)c2nc(Nc3cccc(-c4cc[nH]n4)c3)ncc21` [Compound I-137, 2-(3-(1H-pyrazol-3-yl)phenylamino)-9-cyclopentyl-8,9-dihydro-5,7,7-trimethyl-5H-pyrimido[4,5-b][1,4]diazepin-6(7H)-one], the Ki is reported as 10 to 100 nM. `CC(=O)N1CCc2cc(Nc3ncc4c(n3)N(C3CCCC3)CC(C)(C)C(=O)N4C)ccc21` [Compound I-79, 2-(1-acetylindolin-5-ylamino)-9-cyclopentyl-8,9-dihydro-5,7,7-trimethyl-5H-pyrimido[4,5-b][1,4]diazepin-6(7H)-one] was tested, and the Ki was 10 to 100 nM. Molecule `CN1C(=O)C(C)(C)CN(C2CCCC2)c2nc(Nc3cccc(NC(=O)N4CCCCC4)c3)ncc21` [Compound I-164, N-(3-(9-cyclopentyl-6,7,8,9-tetrahydro-5,7,7-trimethyl-6-oxo-5H-pyrimido[4,5-b][1,4]diazepin-2-ylamino)phenyl)piperidine-1-carboxamide] has a Ki of 10 to 100 nM. In the case of `COc1cc(C(=O)N[C@H]2CCN(C(C)C)C2)ccc1Nc1ncc2c(n1)N(C1CCCC1)CC(C)(C)C(=O)N2C` [Compound I-73, 4-(9-cyclopentyl-6,7,8,9-tetrahydro-5,7,7-trimethyl-6-oxo-5H-pyrimido[4,5-b][1,4]diazepin-2-ylamino)-N—((S)-1-isoipropylpyrrolidin-3-yl)-3-methoxybenzamide], the Ki is reported as < 10 nM. For `COc1cc(C(=O)NC2(CO)CCCC2)ccc1Nc1ncc2c(n1)N(C1CCCC1)CC(C)(C)C(=O)N2C` [Compound I-254, 4-(9-cyclopentyl-5,7,7-trimethyl-6-oxo-6,7,8,9-tetrahydro-5H-pyrimido[4,5-b][1,4]diazepin-2-ylamino)-N-(1-(hydroxymethyl)cyclopentyl)-3-methoxybenzamide], the Ki was < 10 nM.
